Experimental data as given in the supplement of paper PMC10307832.

Key:
Test in all cases: relative viability (nuclei count vs DMSO), 5 days (fraction); higher = more cells survive
Sorafenib + Palbociclib = compound: CNC(=O)c1cc(Oc2ccc(NC(=O)Nc3ccc(Cl)c(C(F)(F)F)c3)cc2)ccn1 [Sorafenib] + CC(=O)c1c(C)c2cnc(Nc3ccc(N4CCNCC4)cn3)nc2n(C2CCCC2)c1=O [Palbociclib] (partner 0.5 µM)
Procedure, shortened: (§1)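 Lung cancer cell lines were pin-tool dosed in 1536-well plates on the day after seeding, with either a lone drug or a fixed anchor-drug dose plus five library-drug doses (not always all listed) in √10 steps. Nuclei were counted on 4× images after 5 days. Relative viability is the ratio of treated-well to vehicle-well nuclei counts, with each value a median of duplicate plates.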

Sorafenib + Linsitinib = compound: CNC(=O)c1cc(Oc2ccc(NC(=O)Nc3ccc(Cl)c(C(F)(F)F)c3)cc2)ccn1 [Sorafenib] + C[C@]1(O)C[C@@H](c2nc(-c3ccc4ccc(-c5ccccc5)nc4c3)c3c(N)nccn32)C1 [Linsitinib] (partner 1 µM)
Procedure, shortened: as §1

Sorafenib + Tozasertib = compound: CNC(=O)c1cc(Oc2ccc(NC(=O)Nc3ccc(Cl)c(C(F)(F)F)c3)cc2)ccn1 [Sorafenib] + Cc1cc(Nc2cc(N3CCN(C)CC3)nc(Sc3ccc(NC(=O)C4CC4)cc3)n2)n[nH]1 [Tozasertib] (partner 0.1 µM)
Procedure, shortened: as §1

Sorafenib + Dasatinib = compound: CNC(=O)c1cc(Oc2ccc(NC(=O)Nc3ccc(Cl)c(C(F)(F)F)c3)cc2)ccn1 [Sorafenib] + Cc1nc(Nc2ncc(C(=O)Nc3c(C)cccc3Cl)s2)cc(N2CCN(CCO)CC2)n1 [Dasatinib] (partner 0.075 µM)
Procedure, shortened: as §1

Sorafenib + Decitabine = compound: CNC(=O)c1cc(Oc2ccc(NC(=O)Nc3ccc(Cl)c(C(F)(F)F)c3)cc2)ccn1 [Sorafenib] + Nc1ncn([C@H]2C[C@H](O)[C@@H](CO)O2)c(=O)n1 [Decitabine] (partner 2 µM)
Procedure, shortened: as §1

NCI-H23
relative viability (Sorafenib + Palbociclib; first compound 0.08 µM): 0.522
relative viability (Sorafenib + Palbociclib; first compound 0.253 µM): 0.503
relative viability (Sorafenib + Palbociclib; first compound 2.53 µM): 0.514
relative viability (Sorafenib + Palbociclib; first compound 8 µM): 0.389
relative viability (Sorafenib + Linsitinib; first compound 0.08 µM): 0.626
relative viability (Sorafenib + Linsitinib; first compound 0.253 µM): 0.439
relative viability (Sorafenib + Linsitinib; first compound 2.53 µM): 0.553
relative viability (Sorafenib + Linsitinib; first compound 8 µM): 0.512
relative viability (Sorafenib + Tozasertib; first compound 0.08 µM): 0.362
relative viability (Sorafenib + Tozasertib; first compound 0.253 µM): 0.286
relative viability (Sorafenib + Tozasertib; first compound 2.53 µM): 0.276
relative viability (Sorafenib + Tozasertib; first compound 8 µM): 0.219
relative viability (Sorafenib + Dasatinib; first compound 0.08 µM): 0.804
relative viability (Sorafenib + Dasatinib; first compound 0.253 µM): 0.691
relative viability (Sorafenib + Dasatinib; first compound 2.53 µM): 0.646
relative viability (Sorafenib + Dasatinib; first compound 8 µM): 0.709
relative viability (Sorafenib + Decitabine; first compound 0.08 µM): 0.269
relative viability (Sorafenib + Decitabine; first compound 0.253 µM): 0.292
relative viability (Sorafenib + Decitabine; first compound 2.53 µM): 0.302
relative viability (Sorafenib + Decitabine; first compound 8 µM): 0.26

NCI-H322M
relative viability (Sorafenib + Palbociclib; first compound 0.08 µM): 0.524
relative viability (Sorafenib + Palbociclib; first compound 0.253 µM): 0.589
relative viability (Sorafenib + Palbociclib; first compound 2.53 µM): 0.525
relative viability (Sorafenib + Palbociclib; first compound 8 µM): 0.63
relative viability (Sorafenib + Linsitinib; first compound 0.08 µM): 0.886
relative viability (Sorafenib + Linsitinib; first compound 0.253 µM): 1.05
relative viability (Sorafenib + Linsitinib; first compound 2.53 µM): 0.912
relative viability (Sorafenib + Linsitinib; first compound 8 µM): 0.984
relative viability (Sorafenib + Tozasertib; first compound 0.08 µM): 0.512
relative viability (Sorafenib + Tozasertib; first compound 0.253 µM): 0.394
relative viability (Sorafenib + Tozasertib; first compound 2.53 µM): 0.527
relative viability (Sorafenib + Tozasertib; first compound 8 µM): 0.475
relative viability (Sorafenib + Dasatinib; first compound 0.08 µM): 0.261
relative viability (Sorafenib + Dasatinib; first compound 0.253 µM): 0.259
relative viability (Sorafenib + Dasatinib; first compound 2.53 µM): 0.319
relative viability (Sorafenib + Dasatinib; first compound 8 µM): 0.302
relative viability (Sorafenib + Decitabine; first compound 0.08 µM): 0.69
relative viability (Sorafenib + Decitabine; first compound 0.253 µM): 0.788
relative viability (Sorafenib + Decitabine; first compound 2.53 µM): 0.823
relative viability (Sorafenib + Decitabine; first compound 8 µM): 0.739

NCI-H358
relative viability (Sorafenib + Palbociclib; first compound 0.08 µM): 0.137
relative viability (Sorafenib + Palbociclib; first compound 0.253 µM): 0.127
relative viability (Sorafenib + Palbociclib; first compound 2.53 µM): 0.182
relative viability (Sorafenib + Palbociclib; first compound 8 µM): 0.128
relative viability (Sorafenib + Linsitinib; first compound 0.08 µM): 0.763
relative viability (Sorafenib + Linsitinib; first compound 0.253 µM): 0.85
relative viability (Sorafenib + Linsitinib; first compound 2.53 µM): 0.748
relative viability (Sorafenib + Linsitinib; first compound 8 µM): 0.255
relative viability (Sorafenib + Tozasertib; first compound 0.08 µM): 0.112
relative viability (Sorafenib + Tozasertib; first compound 0.253 µM): 0.0906
relative viability (Sorafenib + Tozasertib; first compound 2.53 µM): 0.0966
relative viability (Sorafenib + Tozasertib; first compound 8 µM): 0.073
relative viability (Sorafenib + Dasatinib; first compound 0.08 µM): 0.202
relative viability (Sorafenib + Dasatinib; first compound 0.253 µM): 0.186
relative viability (Sorafenib + Dasatinib; first compound 2.53 µM): 0.379
relative viability (Sorafenib + Dasatinib; first compound 8 µM): 0.151
relative viability (Sorafenib + Decitabine; first compound 0.08 µM): 0.224
relative viability (Sorafenib + Decitabine; first compound 0.253 µM): 0.222
relative viability (Sorafenib + Decitabine; first compound 2.53 µM): 0.217
relative viability (Sorafenib + Decitabine; first compound 8 µM): 0.121

NCI-H441
relative viability (Sorafenib + Palbociclib; first compound 0.08 µM): 0.222
relative viability (Sorafenib + Palbociclib; first compound 0.253 µM): 0.245
relative viability (Sorafenib + Palbociclib; first compound 2.53 µM): 0.252
relative viability (Sorafenib + Palbociclib; first compound 8 µM): 0.164
relative viability (Sorafenib + Linsitinib; first compound 0.08 µM): 0.563
relative viability (Sorafenib + Linsitinib; first compound 0.253 µM): 0.417
relative viability (Sorafenib + Linsitinib; first compound 2.53 µM): 0.355
relative viability (Sorafenib + Linsitinib; first compound 8 µM): 0.302
relative viability (Sorafenib + Tozasertib; first compound 0.08 µM): 0.644
relative viability (Sorafenib + Tozasertib; first compound 2.53 µM): 0.542
relative viability (Sorafenib + Tozasertib; first compound 8 µM): 0.386
relative viability (Sorafenib + Dasatinib; first compound 2.53 µM): 0.503
relative viability (Sorafenib + Dasatinib; first compound 8 µM): 0.308
relative viability (Sorafenib + Decitabine; first compound 0.08 µM): 0.23
relative viability (Sorafenib + Decitabine; first compound 0.253 µM): 0.146
relative viability (Sorafenib + Decitabine; first compound 2.53 µM): 0.207
relative viability (Sorafenib + Decitabine; first compound 8 µM): 0.277

NCI-H460
relative viability (Sorafenib + Palbociclib; first compound 0.08 µM): 0.176
relative viability (Sorafenib + Palbociclib; first compound 0.253 µM): 0.118
relative viability (Sorafenib + Palbociclib; first compound 2.53 µM): 0.136
relative viability (Sorafenib + Palbociclib; first compound 8 µM): 0.137
relative viability (Sorafenib + Linsitinib; first compound 0.08 µM): 0.838
relative viability (Sorafenib + Linsitinib; first compound 0.253 µM): 0.771
relative viability (Sorafenib + Linsitinib; first compound 2.53 µM): 0.684
relative viability (Sorafenib + Linsitinib; first compound 8 µM): 0.215
relative viability (Sorafenib + Tozasertib; first compound 0.08 µM): 0.514
relative viability (Sorafenib + Tozasertib; first compound 0.253 µM): 0.386
relative viability (Sorafenib + Tozasertib; first compound 2.53 µM): 0.414
relative viability (Sorafenib + Tozasertib; first compound 8 µM): 0.0751
relative viability (Sorafenib + Dasatinib; first compound 0.08 µM): 0.554
relative viability (Sorafenib + Dasatinib; first compound 0.253 µM): 0.541
relative viability (Sorafenib + Dasatinib; first compound 2.53 µM): 0.498
relative viability (Sorafenib + Dasatinib; first compound 8 µM): 0.416
relative viability (Sorafenib + Decitabine; first compound 0.08 µM): 0.472
relative viability (Sorafenib + Decitabine; first compound 0.253 µM): 0.447
relative viability (Sorafenib + Decitabine; first compound 2.53 µM): 0.457
relative viability (Sorafenib + Decitabine; first compound 8 µM): 0.357

NCI-H520
relative viability (Sorafenib + Palbociclib; first compound 0.08 µM): 0.192
relative viability (Sorafenib + Palbociclib; first compound 0.253 µM): 0.208
relative viability (Sorafenib + Palbociclib; first compound 2.53 µM): 0.225
relative viability (Sorafenib + Palbociclib; first compound 8 µM): 0.172
relative viability (Sorafenib + Linsitinib; first compound 0.08 µM): 1.01
relative viability (Sorafenib + Linsitinib; first compound 0.253 µM): 0.905
relative viability (Sorafenib + Linsitinib; first compound 2.53 µM): 0.919
relative viability (Sorafenib + Linsitinib; first compound 8 µM): 0.307
relative viability (Sorafenib + Tozasertib; first compound 0.08 µM): 0.517
relative viability (Sorafenib + Tozasertib; first compound 0.253 µM): 0.436
relative viability (Sorafenib + Tozasertib; first compound 2.53 µM): 0.432
relative viability (Sorafenib + Tozasertib; first compound 8 µM): 0.331
relative viability (Sorafenib + Dasatinib; first compound 0.08 µM): 0.231
relative viability (Sorafenib + Dasatinib; first compound 0.253 µM): 0.225
relative viability (Sorafenib + Dasatinib; first compound 2.53 µM): 0.216
relative viability (Sorafenib + Dasatinib; first compound 8 µM): 0.174
relative viability (Sorafenib + Decitabine; first compound 0.253 µM): 0.421
relative viability (Sorafenib + Decitabine; first compound 2.53 µM): 0.446
relative viability (Sorafenib + Decitabine; first compound 8 µM): 0.299

NCI-H647
relative viability (Sorafenib + Palbociclib; first compound 0.08 µM): 0.373
relative viability (Sorafenib + Palbociclib; first compound 0.253 µM): 0.316
relative viability (Sorafenib + Palbociclib; first compound 2.53 µM): 0.284
relative viability (Sorafenib + Palbociclib; first compound 8 µM): 0.082
relative viability (Sorafenib + Linsitinib; first compound 0.08 µM): 1.16
relative viability (Sorafenib + Linsitinib; first compound 0.253 µM): 0.992
relative viability (Sorafenib + Linsitinib; first compound 2.53 µM): 0.976
relative viability (Sorafenib + Linsitinib; first compound 8 µM): 0.243
relative viability (Sorafenib + Tozasertib; first compound 0.08 µM): 0.246
relative viability (Sorafenib + Tozasertib; first compound 0.253 µM): 0.218
relative viability (Sorafenib + Tozasertib; first compound 2.53 µM): 0.165
relative viability (Sorafenib + Tozasertib; first compound 8 µM): 0.0549
relative viability (Sorafenib + Dasatinib; first compound 0.08 µM): 0.245
relative viability (Sorafenib + Dasatinib; first compound 0.253 µM): 0.172
relative viability (Sorafenib + Dasatinib; first compound 2.53 µM): 0.174
relative viability (Sorafenib + Dasatinib; first compound 8 µM): 0.135
relative viability (Sorafenib + Decitabine; first compound 0.08 µM): 0.4
relative viability (Sorafenib + Decitabine; first compound 0.253 µM): 0.316
relative viability (Sorafenib + Decitabine; first compound 2.53 µM): 0.355
relative viability (Sorafenib + Decitabine; first compound 8 µM): 0.184

NCI-H650
relative viability (Sorafenib + Palbociclib; first compound 0.08 µM): 0.435
relative viability (Sorafenib + Palbociclib; first compound 0.253 µM): 0.303
relative viability (Sorafenib + Palbociclib; first compound 2.53 µM): 0.268
relative viability (Sorafenib + Palbociclib; first compound 8 µM): 0.355
relative viability (Sorafenib + Linsitinib; first compound 0.08 µM): 0.81
relative viability (Sorafenib + Linsitinib; first compound 0.253 µM): 0.664
relative viability (Sorafenib + Linsitinib; first compound 2.53 µM): 0.776
relative viability (Sorafenib + Linsitinib; first compound 8 µM): 0.716
relative viability (Sorafenib + Tozasertib; first compound 0.08 µM): 0.718
relative viability (Sorafenib + Tozasertib; first compound 0.253 µM): 0.659
relative viability (Sorafenib + Tozasertib; first compound 2.53 µM): 0.62
relative viability (Sorafenib + Tozasertib; first compound 8 µM): 0.592
relative viability (Sorafenib + Dasatinib; first compound 0.08 µM): 0.508
relative viability (Sorafenib + Dasatinib; first compound 0.253 µM): 0.367
relative viability (Sorafenib + Dasatinib; first compound 2.53 µM): 0.462
relative viability (Sorafenib + Dasatinib; first compound 8 µM): 0.425
relative viability (Sorafenib + Decitabine; first compound 0.08 µM): 0.343
relative viability (Sorafenib + Decitabine; first compound 0.253 µM): 0.295
relative viability (Sorafenib + Decitabine; first compound 2.53 µM): 0.34
relative viability (Sorafenib + Decitabine; first compound 8 µM): 0.278
